# Source: US12398154B2, “Azaquinazoline pan-KRas inhibitors” (Mirati Therapeutics, Inc., priority 2020, dated 2025)
# pIC50: −log10 of the molar value.
# What was measured:
# KRas G12V = KRas G12V (Homo sapiens, UniProt P01116, G12V); assay: biochemical;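 note: KRas binding measured by TR-FRET displacement at room temperature, IC50 fitted from percent of control values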
# Experimental: (§1) The ability of a compound to bind to KRas was measured using a TR-FRET displacement assay. […] After a 60-minute incubation at room temperature, the reaction was measured using a BMG LABTECH CLARIO star Plus via TR-FRET. […] The POC values were fit to a 4-parameter IC50 equation and the IC50 value reported.
# KRas G12D = KRas G12D (Homo sapiens, UniProt P01116, G12D); assay: biochemical;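 note: TR-FRET displacement binding assay on KRas, read after a one-hour incubation at room temperature, IC50 fitted from percent-of-control values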
# Experimental: as §1
# pERK in PSN1 cells = assay: Inhibition of KRas phosphorylation of ERK (Cisbio HTRF pERK assay); settings: Homo sapiens, PSN1, 3 h, read-out: Inhibition (HTRF IC50) of KRas-mediated Phosphorylation of ERK, PSN1
# pERK in H727 cells = assay: as above; settings: Homo sapiens, NCI-H727, read-out: Inhibition (HTRF IC50) of KRas-mediated Phosphorylation of ERK, H727
# pERK in MKN1 cells = assay: as above; settings: Homo sapiens, MKN-1, 3 h, read-out: Inhibition (HTRF IC50) of KRas-mediated Phosphorylation of ERK, MKN1
# pERK in ASPC1 cells = assay: as above; settings: Homo sapiens, ASPC1, read-out: Inhibition (HTRF IC50) of KRas-mediated Phosphorylation of ERK, AsPC-1
# KRas G12R = KRas G12R (Homo sapiens, UniProt P01116, G12R); assay: biochemical;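 note: TR-FRET displacement assay of compound binding to KRas, read after one hour at room temperature, potency from a four-parameter fit of percent-of-control values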
# KRas G12R, sequence (P01116 1-169 isoform P01116-2 G12R): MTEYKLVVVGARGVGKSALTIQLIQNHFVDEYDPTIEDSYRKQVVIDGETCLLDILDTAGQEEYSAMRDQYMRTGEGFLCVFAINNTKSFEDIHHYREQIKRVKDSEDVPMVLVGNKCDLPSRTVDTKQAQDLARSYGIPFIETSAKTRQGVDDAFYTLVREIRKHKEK
# Experimental: as §1
# KRas G12V, sequence (P01116 1-169 isoform P01116-2 G12V): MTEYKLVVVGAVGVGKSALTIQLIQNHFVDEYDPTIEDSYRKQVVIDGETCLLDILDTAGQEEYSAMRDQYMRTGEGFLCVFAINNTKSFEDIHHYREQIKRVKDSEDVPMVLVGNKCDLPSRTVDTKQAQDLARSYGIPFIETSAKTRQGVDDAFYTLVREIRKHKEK
# KRas G12D, sequence (P01116 1-169 isoform P01116-2 G12D): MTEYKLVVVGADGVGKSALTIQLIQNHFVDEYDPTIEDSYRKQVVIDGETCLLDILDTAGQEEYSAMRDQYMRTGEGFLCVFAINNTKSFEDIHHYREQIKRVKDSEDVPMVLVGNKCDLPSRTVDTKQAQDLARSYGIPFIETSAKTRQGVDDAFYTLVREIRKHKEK
pIC50 (KRas G12V),pIC50 (KRas G12D),pIC50 (pERK in PSN1 cells),pIC50 (pERK in H727 cells),pIC50 (pERK in MKN1 cells),pIC50 (pERK in ASPC1 cells),pIC50 (KRas G12R),Structure (SMILES)
≥ 8.70,≥ 8.70,≤ 5.00,5.90,7.34,6.02,≥ 8.70,"CCc1c(F)ccc2cc(O)cc(-c3ncc4c(N5CCCC(NS(N)(=O)=O)C5)nc(OC[C@@]56CCCN5C[C@H](F)C6)nc4c3F)c12 (stereo partly drawn) [Example 352, 7-(8-ethyl-7-fluoro-3-hydroxy-1-naphthyl)-8-fluoro-2-(((2R,7aS)-2-fluorohexahydro-1H-pyrrolizin-7a-yl)methoxy)-4-[3-(sulfamoylamino)-1-piperidyl]pyrido[4,3-d]pyrimidine]"
7.24,6.70,≤ 5.00,≤ 5.00,≤ 5.00,≤ 5.00,8.00,"CCc1c(F)ccc2cc(O)cc(-c3ncc4c(N5C[C@@H]6C(=O)NNC(=O)[C@@H]6C5)nc(OC[C@@]56CCCN5C[C@H](F)C6)nc4c3F)c12 [Example 363, (4aR,7aS)-6-(7-(8-ethyl-7-fluoro-3-hydroxynaphthalen-1-yl)-8-fluoro-2-(((2R,7aS)-2-fluorotetrahydro-1H-pyrrolizin-7a(5H)-yl)methoxy)pyrido[4,3-d]pyrimidin-4-yl)hexahydro-1H-pyrrolo[3,4-d]pyridazine-1,4(4aH)-dione]"
7.62,8.40,≤ 5.00,6.21,6.72,5.33,7.96,"CCc1c(F)ccc2cc(O)cc(-c3ncc4c(NCC5CCNC5=O)nc(OC[C@@]56CCCN5C[C@H](F)C6)nc4c3F)c12 (stereo partly drawn) [Example 368, 3-(((7-(8-ethyl-7-fluoro-3-hydroxynaphthalen-1-yl)-8-fluoro-2-(((2R,7aS)-2-fluorotetrahydro-1H-pyrrolizin-7a(5H)-yl)methoxy)pyrido[4,3-d]pyrimidin-4-yl)amino)methyl)pyrrolidin-2-one]"
8.52,8.30,≤ 5.00,6.33,6.53,5.87,8.40,"CCc1c(F)ccc2cc(O)cc(-c3ncc4c(NCC5NC(=O)NC5=O)nc(OC[C@@]56CCCN5C[C@H](F)C6)nc4c3F)c12 (stereo partly drawn) [Example 369, 5-(((7-(8-ethyl-7-fluoro-3-hydroxynaphthalen-1-yl)-8-fluoro-2-(((2R,7aS)-2-fluorohexahydro-1H-pyrrolizin-7a-yl)methoxy)pyrido[4,3-d]pyrimidin-4-yl)amino)methyl)imidazolidine-2,4-dione]"
≥ 8.70,7.96,≤ 5.00,6.29,6.48,5.53,8.30,"CCc1c(F)ccc2cc(O)cc(-c3ncc4c(NCC5CNC(=O)N5)nc(OC[C@@]56CCCN5C[C@H](F)C6)nc4c3F)c12 (stereo partly drawn) [Example 370, 4-(((7-(8-ethyl-7-fluoro-3-hydroxynaphthalen-1-yl)-8-fluoro-2-(((2R,7aS)-2-fluorohexahydro-1H-pyrrolizin-7a-yl)methoxy)pyrido[4,3-d]pyrimidin-4-yl)amino)methyl)imidazolidin-2-one]"
8.52,≥ 8.70,≤ 5.00,5.11,5.64,≤ 5.00,7.92,"CCc1c(F)ccc2cc(O)cc(-c3ncc4c(NCCC5CCC(=O)N5)nc(OC[C@@]56CCCN5C[C@H](F)C6)nc4c3F)c12 (stereo partly drawn) [Example 377, 5-(2-((7-(8-ethyl-7-fluoro-3-hydroxynaphthalen-1-yl)-8-fluoro-2-(((2R,7aS)-2-fluorotetrahydro-1H-pyrrolizin-7a(5H)-yl)methoxy)pyrido[4,3-d]pyrimidin-4-yl)amino)ethyl)pyrrolidin-2-one]"
≥ 8.70,8.05,≤ 5.00,5.23,6.11,≤ 5.00,8.52,"CCc1c(F)ccc2cc(O)cc(-c3ncc4c(NCCC5CNC(=O)N5)nc(OC[C@@]56CCCN5C[C@H](F)C6)nc4c3F)c12 (stereo partly drawn) [Example 382, 4-(2-((7-(8-ethyl-7-fluoro-3-hydroxynaphthalen-1-yl)-8-fluoro-2-(((2R,7aS)-2-fluorohexahydro-1H-pyrrolizin-7a-yl)methoxy)pyrido[4,3-d]pyrimidin-4-yl)amino)ethyl) imidazolidin-2-one]"
≥ 8.70,≥ 8.70,≤ 5.00,5.33,6.38,≤ 5.00,≥ 8.70,"CCc1c(F)ccc2cc(O)cc(-c3ncc4c(NCc5cc(C(N)=O)nn5C)nc(OC[C@@]56CCCN5C[C@H](F)C6)nc4c3F)c12 [Example 385, 5-(((7-(8-ethyl-7-fluoro-3-hydroxynaphthalen-1-yl)-8-fluoro-2-(((2R,7aS)-2-fluorohexahydro-1H-pyrrolizin-7a-yl)methoxy)pyrido[4,3-d]pyrimidin-4-yl)amino)methyl)-1-methyl-1H-pyrazole-3-carboxamide]"
≥ 8.70,≥ 8.70,≤ 5.00,5.86,6.52,6.32,≥ 8.70,"C#Cc1c(F)ccc2cc(O)cc(-c3ncc4c(N5CCCC6(CNC(=O)N6)C5)nc(OC[C@@]56CCCN5C[C@H](F)C6)nc4c3F)c12 (stereo partly drawn) [Example 395, 7-(7-(8-ethynyl-7-fluoro-3-hydroxynaphthalen-1-yl)-8-fluoro-2-(((2R,7aS)-2-fluorohexahydro-1H-pyrrolizin-7a-yl)methoxy)pyrido[4,3-d]pyrimidin-4-yl)-1,3,7-triazaspiro[4.5]decan-2-one]"
8.52,≥ 8.70,≤ 5.00,5.13,6.28,5.51,8.52,"C#Cc1c(F)ccc2cc(O)cc(-c3ncc4c(N5CCCC6(CNS(=O)(=O)N6)C5)nc(OC[C@@]56CCCN5C[C@H](F)C6)nc4c3F)c12 (stereo partly drawn) [Example 396, 7-(7-(8-ethynyl-7-fluoro-3-hydroxynaphthalen-1-yl)-8-fluoro-2-(((2R,7aS)-2-fluorohexahydro-1H-pyrrolizin-7a-yl)methoxy)pyrido[4,3-d]pyrimidin-4-yl)-2-thia-1,3,7-triazaspiro[4.5]decane 2,2-dioxide]"
8.30,8.40,≤ 5.00,6.13,6.51,6.06,7.96,"O=C1NCC12CCCN(c1nc(OC[C@@]34CCCN3C[C@H](F)C4)nc3c(F)c(-c4cc(O)cc5ccc(F)c(Br)c45)ncc13)C2 (stereo partly drawn) [Example 406, 6-(7-(8-bromo-7-fluoro-3-hydroxynaphthalen-1-yl)-8-fluoro-2-(((2R,7aS)-2-fluorohexahydro-1H-pyrrolizin-7a-yl)methoxy)pyrido[4,3-d]pyrimidin-4-yl)-2,6-diazaspiro[3.5]nonan-1-one]"
≥ 8.70,≥ 8.70,≤ 5.00,6.24,6.45,6.14,≥ 8.70,"Nc1cc2n(n1)CCCN(c1nc(OC[C@@]34CCCN3C[C@H](F)C4)nc3c(F)c(-c4cc(O)cc5ccc(F)c(Br)c45)ncc13)C2 [Example 408, 4-(4-(2-amino-7,8-dihydro-4H-pyrazolo[1,5-a][1,4]diazepin-5(6H)-yl)-8-fluoro-2-(((2R,7aS)-2-fluorohexahydro-1H-pyrrolizin-7a-yl)methoxy)pyrido[4,3-d]pyrimidin-7-yl)-5-bromo-6-fluoronaphthalen-2-ol]"
≥ 8.70,≥ 8.70,≤ 5.00,5.65,6.96,6.25,≥ 8.70,"O=C1NC(=O)C2CN(c3nc(OC[C@@]45CCCN4C[C@H](F)C5)nc4c(F)c(-c5cc(O)cc6ccc(F)c(Cl)c56)ncc34)CC12 (stereo partly drawn) [Example 423, 5-(7-(8-chloro-7-fluoro-3-hydroxynaphthalen-1-yl)-8-fluoro-2-(((2R,7aS)-2-fluorohexahydro-1H-pyrrolizin-7a-yl)methoxy)pyrido[4,3-d]pyrimidin-4-yl)tetrahydropyrrolo[3,4-c]pyrrole-1,3(2H,3aH)-dione]"
8.40,8.52,5.55,5.89,7.02,6.09,8.10,"O=C1NCC12CCCN(c1nc(OC[C@@]34CCCN3C[C@H](F)C4)nc3c(F)c(-c4cc(O)cc5ccc(F)c(Cl)c45)ncc13)C2 (stereo partly drawn) [Example 424, 6-(7-(8-chloro-7-fluoro-3-hydroxynaphthalen-1-yl)-8-fluoro-2-(((2R,7aS)-2-fluorohexahydro-1H-pyrrolizin-7a-yl)methoxy)pyrido[4,3-d]pyrimidin-4-yl)-2,6-diazaspiro[3.5]nonan-1-one]"
≥ 8.70,≥ 8.70,≤ 5.00,5.91,6.58,6.19,≥ 8.70,"Nc1cc2n(n1)CCCN(c1nc(OC[C@@]34CCCN3C[C@H](F)C4)nc3c(F)c(-c4cc(O)cc5ccc(F)c(Cl)c45)ncc13)C2 [Example 426, 4-(4-(2-amino-7,8-dihydro-4H-pyrazolo[1,5-a][1,4]diazepin-5(6H)-yl)-8-fluoro-2-(((2R,7aS)-2-fluorohexahydro-1H-pyrrolizin-7a-yl)methoxy)pyrido[4,3-d]pyrimidin-7-yl)-5-chloro-6-fluoronaphthalen-2-ol]"
